Assay results from ChEMBL document CHEMBL4507291 (2021).

Columns and labels:
[1] = molecular target: 5-hydroxytryptamine receptor 7 (Homo sapiens) (UniProt P34969); details: Compound concentration 10.0 uM
[2] = molecular target: T1, TGF-beta receptor type-1 (Homo sapiens) (UniProt P36897); assay: TGFBR1 (ALK5) Kinase screen; details: Compound concentration 1.0 uM
T1 sequence (whole entry): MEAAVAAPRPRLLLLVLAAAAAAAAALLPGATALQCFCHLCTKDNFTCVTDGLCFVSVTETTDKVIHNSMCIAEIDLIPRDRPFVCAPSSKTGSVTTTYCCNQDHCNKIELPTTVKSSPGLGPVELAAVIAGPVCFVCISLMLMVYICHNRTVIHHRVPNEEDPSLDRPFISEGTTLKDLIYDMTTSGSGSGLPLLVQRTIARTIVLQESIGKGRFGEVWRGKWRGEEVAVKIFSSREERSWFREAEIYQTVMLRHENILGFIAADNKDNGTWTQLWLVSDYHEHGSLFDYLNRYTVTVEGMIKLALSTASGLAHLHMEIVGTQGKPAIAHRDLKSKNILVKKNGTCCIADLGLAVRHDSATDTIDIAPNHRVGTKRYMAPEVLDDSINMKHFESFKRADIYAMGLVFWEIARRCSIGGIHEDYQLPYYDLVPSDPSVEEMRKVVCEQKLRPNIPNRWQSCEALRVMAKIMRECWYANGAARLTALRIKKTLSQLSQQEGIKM

[3] = molecular target: Tyrosine-protein kinase Lyn (Homo sapiens) (UniProt P07948); assay: LYN B Kinase screen; details: Compound concentration 1.0 uM
Tyrosine-protein kinase Lyn (Homo sapiens), sequence (P07948 2-512 limits assumed): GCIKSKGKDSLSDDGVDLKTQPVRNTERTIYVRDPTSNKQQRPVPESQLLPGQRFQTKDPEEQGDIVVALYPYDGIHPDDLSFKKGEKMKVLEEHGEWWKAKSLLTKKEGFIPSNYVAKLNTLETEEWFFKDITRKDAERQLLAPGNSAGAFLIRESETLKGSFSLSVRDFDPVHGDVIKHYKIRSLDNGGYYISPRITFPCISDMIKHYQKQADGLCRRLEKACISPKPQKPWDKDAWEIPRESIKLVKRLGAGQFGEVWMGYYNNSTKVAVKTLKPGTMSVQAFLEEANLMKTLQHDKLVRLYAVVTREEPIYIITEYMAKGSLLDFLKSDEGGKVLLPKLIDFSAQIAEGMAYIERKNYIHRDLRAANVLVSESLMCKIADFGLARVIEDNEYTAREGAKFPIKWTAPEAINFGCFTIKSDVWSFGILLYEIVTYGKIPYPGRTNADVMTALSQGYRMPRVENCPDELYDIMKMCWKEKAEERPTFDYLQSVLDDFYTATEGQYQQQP

5-hydroxytryptamine receptor 7 (Homo sapiens), sequence (P34969 whole entry): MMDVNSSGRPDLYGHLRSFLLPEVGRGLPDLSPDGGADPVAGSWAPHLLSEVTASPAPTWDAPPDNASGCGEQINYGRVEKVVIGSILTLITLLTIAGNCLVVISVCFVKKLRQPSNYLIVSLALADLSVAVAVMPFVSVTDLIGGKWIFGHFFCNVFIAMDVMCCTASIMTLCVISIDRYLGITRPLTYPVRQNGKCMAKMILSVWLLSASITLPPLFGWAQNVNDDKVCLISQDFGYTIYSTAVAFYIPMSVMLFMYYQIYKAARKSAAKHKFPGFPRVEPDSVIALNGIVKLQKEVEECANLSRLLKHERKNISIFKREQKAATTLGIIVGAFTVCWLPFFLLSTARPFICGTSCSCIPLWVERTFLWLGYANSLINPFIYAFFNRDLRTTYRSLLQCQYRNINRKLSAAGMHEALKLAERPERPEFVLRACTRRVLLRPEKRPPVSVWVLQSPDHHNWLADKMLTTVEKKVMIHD

Compound | inhibition [1] | inhibition [2] | inhibition [3]
C[C@@H]1CN(c2cc(-c3nn(C)c4ccc(OC5(C)CC5)cc34)ncn2)C[C@H](C)O1 [MLi-2-NC] | -0.4% |  | 
C[C@@H]1CN(c2cc(-c3n[nH]c4ccc(OC5(C)CC5)cc34)ncn2)C[C@H](C)O1 [MLi-2] |  | 0.904% | 3.94%
